These results are taken from publication PMC8279406 (Journal of Medicinal Chemistry, 2021).

The test system of test [1] is recombinant K26GFP HSV-1 strain. The experiment in a line: Infection neutralization assay, transfected J cells, K26GFP HSV-1, EGFP expression. The class given is cell-based. The note with it: for effect on HSV-1 infection (in words): J cells expressing nectin1 alone; for effect on virus entry (in words): J cells expressing nectin1 plus αvβ6 alone. The text has this:
To this aim, we selected the J cells, which are negative for gD receptors and therefore cannot be infected by HSV-1 unless gD cognate receptors (i.e., nectin1) are transgenically expressed. […] In particular, J cells were transfected with low amounts of nectin1 plasmid, plus either αvβ6 or αvβ8 integrin plasmid or both, and then infected with the recombinant K26GFP HSV-1 strain. Indeed, the capsid protein ICP26 of this strain is fused to the green fluorescent protein (GFP),[60] whose cellular expression can be used to measure the viral infection. Thus, the K26GFP entry in J cells after compound treatment was evaluated using fluorescent microscopy (Figure 4A–T), and the enhanced green fluorescent protein (EGFP) expression was quantified using flow cytometry as the mean fluorescence intensity (MFI) of gated cells (Figure 4U). […] In parallel, we also evaluated the HSV infection in J cells expressing nectin1 plus either αvβ6 or αvβ8 alone.
J cells were transfected with a low amount (75 ng of DNA/24 well) of nectin1 alone (A–E), or with the same amount of nectin1 plus αvβ6 integrin (300 ng DNA/24 well) (F–J), or plus αvβ8 integrin (300 ng DNA/24 well) (K–O), or plus both the integrin receptors (P–T). […] The cells were infected with K26GFP. The nonpenetrated virus was inactivated by an acid wash. Infectivity was measured at 16 h after infection as EGFP expression. (A)–(T) panels show the EGFP expression in each sample for a typical experiment. (U) K26GFP infection was quantified as EGFP protein expression in the flow cytometry assay as the mean fluorescence intensity (MFI) of gated cells. Histograms represent the average of triplicates ± SD.
In other experiments, J cells were transfected with low amounts of plasmids encoding nectin1 (75 ng of DNA/24 well), plus or minus plasmids encoding αv + β6 or αv + β8 integrins (300 ng of DNA/24 well) or together by means of Lipofect 2000 (Life Technologies). The total amount of transfected plasmid DNA was made equal (675 ng/24 well) by the addition of Erb-2 plasmid DNA. […] Following infection, the unpenetrated virus was inactivated by means of an acid wash (40 mM citric acid, 10 mM KCl, 135 mM NaCl, pH 3),[87] and the cells were incubated for a further 16 h in the absence of the peptides or antibody. The extent of infection was assessed through EGFP expression.
Cytofluorimetric analyses were performed using an AccuriC6 flow cytometer (Becton Dickinson). A least 10 000 events were acquired for each sample. Microphotography of the inhibition experiment was conducted using a Nikon Eclipse Ni microscope.

The next test deals with T1, integrin β6.
T1 construct: expressed in transfected cells; host or cells: J cells (derivatives of BHK-TK2 hamster cells)
The experiment in a line: Integrin internalization assay, surface integrin β6 by flow cytometry. The class given is cell-based, human. The conditions noted are these: J cells with nectin1, αvβ6 and αvβ8, 700 μM, 1 h at 37 °C. From the text:
Therefore, another mechanism might be responsible for the activity of 6 on J cells expressing αvβ8 integrin alone as well as the higher activity of 6 than that of 1 in cells that express both αvβ6 and αvβ8.[38] Thus, we hypothesized that 6 can prevent HSV-1 entry into J cells expressing nectin1 and the αvβ8 integrin alone by inducing internalization of the integrin itself. To validate our hypothesis, J cells were transfected with nectin1 and the two integrins αvβ6 and αvβ8 in the above-described manner. Then, 48 h after transfection, the cells were incubated for 60 min at 37 °C with 1 or 6. The surface expression of integrin β6 and β8, in the presence or the absence of peptides, was then evaluated by flow cytometry using FAB4155A (mAbβ6) and FAB4775A (mAbβ8) monoclonal antibodies that recognize other integrin regions than the RGD-binding domain.
Figure 5 Integrin internalization assay. J cells were transfected with a low amount (75 ng of DNA/24 well) of nectin1 plus αvβ6 integrin (300 ng of DNA/24 well) and αvβ8 integrin (300 ng of DNA/24 well). Then, 48 h after transfection, the cells were exposed to 700 μM peptides for 1 h at 37 °C. […] Integrin and nectin1 surface expression levels were quantified as flow cytometry expression of the APC mean fluorescence intensity (MFI) of gated cells. […]
Background: Flow cytometry measures light scatter and fluorescence of single cells or particles in a stream.

Where [2] appears, read: J cells expressing nectin1 plus both αvβ6 and αvβ8, 700 μM.
Where [3] appears, read: J cells expressing nectin1 plus αvβ8 alone, 700 μM.

In the case of `CN1C(=O)[C@H](C2CCCCC2)NC(=O)[C@H](CC(=O)O)NC(=O)CNC(=O)[C@H](CCCNC(=N)N)NC(=O)CC[C@H]1C(N)=O` [compound 6, [Arg-Gly-Asp-Chg-(NMe)Glu]-CONH2], in test [1] (700 μM), the “effect on HSV-1 infection (in words)” value was “only treatment with R1.302 (B) was effective” and the “effect on virus entry (in words)” value is on record as “the virus entry was affected”. Besides, the “effect on HSV infection (in words)” value in test [1] (setting [2]) was “significantly reduced”. The “effect on HSV infection (in words)” value in test [1] (setting [3]) is listed as “inhibitory effects were detected only in the presence of 6”. The “membrane expression of integrin β6 (in words)” value in the test with integrin β6 is listed as “reduced”.
With `N=C(N)NCCC[C@@H]1NC(=O)CC[C@@H](C(N)=O)NC(=O)[C@H](C2CCCCC2)NC(=O)[C@H](CC(=O)O)NC(=O)CNC1=O` [compound 1, [Arg-Gly-Asp-Chg-Glu]-CONH2], in test [1] (700 μM), the “effect on HSV-1 infection (in words)” value is reported as “only treatment with R1.302 (B) was effective” and the “effect on virus entry (in words)” value is reported as “the virus entry was affected”. Also, in test [1] (setting [2]), the “effect on HSV infection (in words)” value is “only partially impaired”. The “effect on HSV infection (in words)” value in test [1] (setting [3]) is “inhibitory effects were detected only in the presence of 6”. Also, the “membrane expression of integrin β6 (in words)” value with integrin β6 is “reduced”.
